# Experimental data taken from US20100041089A1, “IMPROVED METHOD FOR DETECTING CHEMICAL […]” (priority 2006, published 2010).
# Tested on: yeast genes (expressed mRNA)
# Experiment: DNA chip measurement of expressed mRNA of yeast genes after culture with a toxic chemical substance
# Assay type: cell-based, Saccharomyces cerevisiae S288C
# Details: for level of expressed mRNA in the presence of chemical substance / level in the absence of chemical substance: cultured two hours with the chemical substance; for The level of expressed mRNA in the presence of chemical substance/The level of expressed mRNA in the absence of chemical substance: cultured two hours with substance
# Procedure, shortened: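 Two-hour exposure of growing S. cerevisiae S288C (YPD, 25° C) to a sublethal toxicant preceded RNA isolation. Fluorescent cDNA was hybridized to a whole-genome array; a treated-to-untreated signal ratio of two or more was taken as significant.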
smiles,measurement,setting,value
"CCCCCCCCCCCCc1ccc(S(=O)(=O)[O-])cc1.[Na+] [(17), Sodium dodecylbenzosulfonate]","The level of expressed mRNA in the presence of chemical substance/The level of expressed mRNA in the absence of chemical substance, yeast gene YBR036C","gene YBR036C, Metabolism protein genes, DNA chip fluorescence ratio",2.1
same,"The level of expressed mRNA in the presence of chemical substance/The level of expressed mRNA in the absence of chemical substance, yeast gene YBR298C","gene YBR298C, Metabolism protein genes, DNA chip fluorescence ratio",0.9
same,"The level of expressed mRNA in the presence of chemical substance/The level of expressed mRNA in the absence of chemical substance, yeast gene YDL067C","gene YDL067C (mitochondria-located protein gene), yeast cultured two hours with chemical substance, DNA chip fluorescence ratio to control",1.2
same,"The level of expressed mRNA in the presence of chemical substance/The level of expressed mRNA in the absence of chemical substance, yeast gene YDL078C","gene YDL078C, Metabolism protein genes, DNA chip fluorescence ratio",1.1
same,"The level of expressed mRNA in the presence of chemical substance/The level of expressed mRNA in the absence of chemical substance, yeast gene YDL215C","gene YDL215C, Metabolism protein genes, DNA chip fluorescence ratio",1.1
same,"The level of expressed mRNA in the presence of chemical substance/The level of expressed mRNA in the absence of chemical substance, yeast gene YDR079W","gene YDR079W (mitochondria-located protein gene), yeast cultured two hours with chemical substance, DNA chip fluorescence ratio to control",1.1
same,"The level of expressed mRNA in the presence of chemical substance/The level of expressed mRNA in the absence of chemical substance, yeast gene YDR297W","gene YDR297W, Metabolism protein genes, DNA chip fluorescence ratio",1.9
same,"The level of expressed mRNA in the presence of chemical substance/The level of expressed mRNA in the absence of chemical substance, yeast gene YDR387C","gene YDR387C, Metabolism protein genes, DNA chip fluorescence ratio",1.2
same,"The level of expressed mRNA in the presence of chemical substance/The level of expressed mRNA in the absence of chemical substance, yeast gene YGL035C","gene YGL035C, Metabolism protein genes, DNA chip fluorescence ratio",0.9
same,"The level of expressed mRNA in the presence of chemical substance/The level of expressed mRNA in the absence of chemical substance, yeast gene YGR062C","gene YGR062C (mitochondria-located protein gene), yeast cultured two hours with chemical substance, DNA chip fluorescence ratio to control",0.9
same,"The level of expressed mRNA in the presence of chemical substance/The level of expressed mRNA in the absence of chemical substance, yeast gene YGR287C","gene YGR287C, Metabolism protein genes, DNA chip fluorescence ratio",1.0
same,"The level of expressed mRNA in the presence of chemical substance/The level of expressed mRNA in the absence of chemical substance, yeast gene YJL070C","gene YJL070C, Metabolism protein genes, DNA chip fluorescence ratio",1.1
same,"The level of expressed mRNA in the presence of chemical substance/The level of expressed mRNA in the absence of chemical substance, yeast gene YJL096W","gene YJL096W (mitochondria-located protein gene), yeast cultured two hours with chemical substance, DNA chip fluorescence ratio to control",1.1
same,"The level of expressed mRNA in the presence of chemical substance/The level of expressed mRNA in the absence of chemical substance, yeast gene YJL180C","gene YJL180C (mitochondria-located protein gene), yeast cultured two hours with chemical substance, DNA chip fluorescence ratio to control",0.9
same,"The level of expressed mRNA in the presence of chemical substance/The level of expressed mRNA in the absence of chemical substance, yeast gene YKR009C","gene YKR009C, Metabolism protein genes, DNA chip fluorescence ratio",1.9
same,"The level of expressed mRNA in the presence of chemical substance/The level of expressed mRNA in the absence of chemical substance, yeast gene YLR295C","gene YLR295C (mitochondria-located protein gene), yeast cultured two hours with chemical substance, DNA chip fluorescence ratio to control",0.9
same,"The level of expressed mRNA in the presence of chemical substance/The level of expressed mRNA in the absence of chemical substance, yeast gene YLR351C","gene YLR351C, Metabolism protein genes, DNA chip fluorescence ratio",1.3
same,"The level of expressed mRNA in the presence of chemical substance/The level of expressed mRNA in the absence of chemical substance, yeast gene YLR375W","gene YLR375W, Metabolism protein genes, DNA chip fluorescence ratio",1.0
same,"The level of expressed mRNA in the presence of chemical substance/The level of expressed mRNA in the absence of chemical substance, yeast gene YMR023C","gene YMR023C (mitochondria-located protein gene), yeast cultured two hours with chemical substance, DNA chip fluorescence ratio to control",1.1
same,"The level of expressed mRNA in the presence of chemical substance/The level of expressed mRNA in the absence of chemical substance, yeast gene YMR267W","gene YMR267W (mitochondria-located protein gene), yeast cultured two hours with chemical substance, DNA chip fluorescence ratio to control",0.9
same,"The level of expressed mRNA in the presence of chemical substance/The level of expressed mRNA in the absence of chemical substance, yeast gene YMR267W","gene YMR267W, Metabolism protein genes, DNA chip fluorescence ratio",0.9
same,"The level of expressed mRNA in the presence of chemical substance/The level of expressed mRNA in the absence of chemical substance, yeast gene YMR278W","gene YMR278W, Metabolism protein genes, DNA chip fluorescence ratio",1.0
same,"The level of expressed mRNA in the presence of chemical substance/The level of expressed mRNA in the absence of chemical substance, yeast gene YMR293C","gene YMR293C, Metabolism protein genes, DNA chip fluorescence ratio",0.8
same,"The level of expressed mRNA in the presence of chemical substance/The level of expressed mRNA in the absence of chemical substance, yeast gene YNL073W","gene YNL073W (mitochondria-located protein gene), yeast cultured two hours with chemical substance, DNA chip fluorescence ratio to control",0.8
same,"The level of expressed mRNA in the presence of chemical substance/The level of expressed mRNA in the absence of chemical substance, yeast gene YNR072W","gene YNR072W, Metabolism protein genes, DNA chip fluorescence ratio",1.3
same,"The level of expressed mRNA in the presence of chemical substance/The level of expressed mRNA in the absence of chemical substance, yeast gene YOL096C","gene YOL096C, Metabolism protein genes, DNA chip fluorescence ratio",1.2
same,"The level of expressed mRNA in the presence of chemical substance/The level of expressed mRNA in the absence of chemical substance, yeast gene YOR180C","gene YOR180C, Metabolism protein genes, DNA chip fluorescence ratio",0.9
same,"The level of expressed mRNA in the presence of chemical substance/The level of expressed mRNA in the absence of chemical substance, yeast gene YOR316C","gene YOR316C (mitochondria-located protein gene), yeast cultured two hours with chemical substance, DNA chip fluorescence ratio to control",0.8
same,"The level of expressed mRNA in the presence of chemical substance/The level of expressed mRNA in the absence of chemical substance, yeast gene YOR363C","gene YOR363C, Metabolism protein genes, DNA chip fluorescence ratio",1.3
same,"The level of expressed mRNA in the presence of chemical substance/The level of expressed mRNA in the absence of chemical substance, yeast gene YPL040C","gene YPL040C (mitochondria-located protein gene), yeast cultured two hours with chemical substance, DNA chip fluorescence ratio to control",0.8
same,"The level of expressed mRNA in the presence of chemical substance/The level of expressed mRNA in the absence of chemical substance, yeast gene YPL134C","gene YPL134C (mitochondria-located protein gene), yeast cultured two hours with chemical substance, DNA chip fluorescence ratio to control",1.3
same,"The level of expressed mRNA in the presence of chemical substance/The level of expressed mRNA in the absence of chemical substance, yeast gene YPR184W","gene YPR184W, Metabolism protein genes, DNA chip fluorescence ratio",1.0
same,level of expressed mRNA in the presence of chemical substance / level in the absence of chemical substance,yeast gene YAL018C,0.9
same,The level of expressed mRNA in the presence of chemical substance/The level of expressed mRNA in the absence of chemical substance,yeast gene YAL053W,1.2
same,level of expressed mRNA in the presence of chemical substance / level in the absence of chemical substance,yeast gene YAR047C,1.7
same,level of expressed mRNA in the presence of chemical substance / level in the absence of chemical substance,yeast gene YAR064W,0.9
same,level of expressed mRNA in the presence of chemical substance / level in the absence of chemical substance,yeast gene YBL044W,0.8
same,The level of expressed mRNA in the presence of chemical substance/The level of expressed mRNA in the absence of chemical substance,yeast gene YBL048W,1.3
same,The level of expressed mRNA in the presence of chemical substance/The level of expressed mRNA in the absence of chemical substance,yeast gene YBL107C,0.9
same,level of expressed mRNA in the presence of chemical substance / level in the absence of chemical substance,yeast gene YBR012C,1.4
same,level of expressed mRNA in the presence of chemical substance / level in the absence of chemical substance,yeast gene YBR066C,1.2
same,level of expressed mRNA in the presence of chemical substance / level in the absence of chemical substance,yeast gene YBR124W,0.9
same,level of expressed mRNA in the presence of chemical substance / level in the absence of chemical substance,yeast gene YBR162C,1.2
same,level of expressed mRNA in the presence of chemical substance / level in the absence of chemical substance,yeast gene YBR287W,3.2
same,level of expressed mRNA in the presence of chemical substance / level in the absence of chemical substance,yeast gene YCL042W,0.8
same,level of expressed mRNA in the presence of chemical substance / level in the absence of chemical substance,yeast gene YCL056C,1.2
same,level of expressed mRNA in the presence of chemical substance / level in the absence of chemical substance,yeast gene YCR007C,2.6
same,level of expressed mRNA in the presence of chemical substance / level in the absence of chemical substance,yeast gene YDL046W,1.2
same,The level of expressed mRNA in the presence of chemical substance/The level of expressed mRNA in the absence of chemical substance,yeast gene YDL072C,1.6
same,The level of expressed mRNA in the presence of chemical substance/The level of expressed mRNA in the absence of chemical substance,yeast gene YDL204W,1.8
same,The level of expressed mRNA in the presence of chemical substance/The level of expressed mRNA in the absence of chemical substance,yeast gene YDL222C,0.9
same,level of expressed mRNA in the presence of chemical substance / level in the absence of chemical substance,yeast gene YDR090C,1.1
